Here are results for two compounds from patent US20210139528A1, “CRYSTALLINE FORMS OF OBETICHOLIC ACID” (INTERCEPT PHARMACEUTICALS, INC., priority 2017, published 2021).

The nature of series [1]: Gravimetric Vapor Sorption (GVS). In kind it is physicochemical. The following applies: for GVS water uptake: 0-90% RH range, about 25° C.; for XRPD post GVS (form recovered after the experiment): after GVS cycle 0-90% RH. As to the method:
Sorption isotherms were obtained using a SMS DVS Intrinsic moisture sorption analyzer, controlled by DVS Intrinsic Control software v1.0.1.2 (or v 1.0.1.3). The sample temperature was maintained at about 25° C. by the instrument controls. The humidity was controlled by mixing streams of dry and wet nitrogen, with a total flow rate of about 200 mL/min. The relative humidity was measured by a calibrated Rotronic probe (dynamic range of about 1.0-100% RH), located near the sample. The weight change, (mass relaxation) of the sample as a function of % RH was constantly monitored by the microbalance (accuracy ±0.005 mg). Typically, about 18-20 mg of sample was placed in a tared mesh stainless steel basket under ambient conditions. The sample was loaded and unloaded at about 40% RH and about 25° C. (typical room conditions). A moisture sorption isotherm was performed as outlined in Table 1 (2 scans giving 1 complete cycle). The standard isotherm was performed at about 25° C. at about 10% RH intervals over a 0-90% RH range. Data analysis was carried out using Microsoft Excel using DVS Analysis Suite v6.2 (or 6.1 or 6.0). The sample was recovered after completion of the isotherm and re-analysed by XRPD.

Series [2] in a line: Storage at elevated temperature/humidity, solid form checked by XRPD.

Counter-ions that a name gives are not always drawn.

Turning to “Obeticholic acid-ursodeoxycholic acid (2:1) cocrystal [OCA:UDCA cocrystal]”, the results for the GVS water uptake result in series [1] and in series [1] (listed as cocrystal) were “ca. 1 % w/w” and 1% water uptake, respectively. Moreover, the figures for the “XRPD post GVS (form recovered after the experiment)” value in series [1] and in series [1] (listed as cocrystal) were “no change” and “Unchanged by XRPD”, respectively.

Take `CC[C@H]1[C@@H](O)[C@@H]2[C@H](CC[C@]3(C)[C@@H]([C@H](C)CCC(=O)O)CC[C@@H]23)[C@@]2(C)CC[C@@H](O)C[C@@H]12` [obeticholic acid monoammonium salt]: in series [2] (25° C./97% RH, 7 days), the “Stability on storage at 25° C./97% RH (XRPD)” value is “amorphous”. Also, the “Stability on storage at 40° C./75% RH (XRPD)” value in series [2] (40° C./75% RH, 7 days) is reported as “unchanged”. The “Stability on storage at 40° C./75% RH (XRPD), screening sample” value in series [2] (screening sample, 40° C./75% RH, 23 days) is given as “possible form change”.
